We go through 2 compounds from US11969730B2, “Apparatus for sensor-based examination of biological cells” (FRAUNHOFER-GESELLSCHAFT ZUR FÖRDERUNG DER ANGEWANDTEN …, priority 2017, dated 2024).

Data set [1] has as its system HaCaT cells. Put plainly: impedimetric toxicity study (cytotoxicity assay) with confluent HaCaT cells on electrode array. Type of data set: cell-based, human. The note with it: 32 kHz; increasing concentrations; applied 24 h after thawing or seeding; 37° C.; cryopreserved (7 days, −80° C.) and newly seeded cells. As for the experimental part: IZI at 32 kHz for confluent HaCaT cells that were incubated (cytotoxicity assay) at the time t=0 h with increasing concentrations of CdCl2.
The cell density was identical in both cases. Increasing concentrations of the heavy metal salt CdCl2 served as the chemical model toxin. The assay was carried out 24 h after thawing, respectively seeding.
The cell response to the addition of CdCl2 is documented with reference to the time profile of the normed impedance at a measurement frequency of 32 kHz. […] The time developments, also highly characteristic of the impedance after the addition of CdCl2 to the confluent cell layers for every concentration of CdCl2 for the cryopreserved cells are indistinguishably similar to those of the newly seeded cells.

The subject of data set [2] is HaCaT cells. Briefly: impedimetric readout of adhesion of HaCaT cells to the electrode surface after cryopreservation and thawing. Type of data set: cell-based, human. The note with it: 10% by volume in the freezing medium; cryopreservation over 5 weeks at −80° C.; capacitance at 40 kHz. As for the experimental part: The cell density on the sensor surface is 450,000 cells/cm^2 (T=37° C.) in both cases. The decrease in the capacitance reflects the increasing electrode coverage.
To check the viability state of the frozen cells and then thawed again, the kinetics of the adhesion of human skin cells (keratinocytes, HaCaT cells) to the electrode surface (of gold) after a cryopreservation of more than five weeks at −80° C. were tracked directly after thawing (revitalization) with time resolution via an impedimetric readout (see FIG. 2A). The time development of the capacitance C of the total system at a measurement frequency of 40 kHz is in linear dependence on the occupation of the electrode with adherent cells and thus reflects the progressing process of the cell adhesion.
The culture medium is modeled on the freezing medium after revitalizing the cells in the chemical composition. Variable DMSO contents were selected to freeze the cells to be able to directly optimize the freezing medium for the respective cell line.

Structures are written as SMILES.

Regarding `[Cl][Cd][Cl]` [CdCl2], the “time profile of the normed impedance after addition of CdCl2” value in data set [1] is given as “decreases in dependence on the dosage”.

In the case of `C[S+](C)[O-]` [DMSO], the “effect on the cell viability after thawing” value in data set [2] was “no negative effect”.
